Here are results for four compounds from US7531312B2, “Simplified biological evaluation method of natural and artificial chemicals by using DNA injury index and apparatus therefor” (TAS Project Co., Ltd., priority 2000, dated 2009).

The subject of this experiment is 2′-deoxyguanosine (dG). Nature of the experiment: 8OHdG produced from added dG, standing at room temperature or UV irradiation (Examples 1-7).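 For all read-outs here: Cell-free test: dG in test solution, held at room temperature or exposed to 254 nm UV, then 8OHdG quantified by HPLC with electrochemical detection, compared against dG in ultrapure water.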 The conditions noted are these: for 8OHdG concentration, 90 Minutes' standing: ultrapure water 0.219; for evaluation in words: oxidation induction or antioxidant ability toward dG: conclusions of Examples 2-7.
Setting [1] is: 1 μg/ml, Table 5, ultrapure water 0.422.
[2] abbreviates: 10 μg/ml, Table 5, ultrapure water 0.422.
Where [3] appears, read: 100 μg/ml, Table 5, ultrapure water 0.422.
Setting [4] is: 1 mg/ml, Table 5, ultrapure water 0.422.

Experimental: Separately, the amount of 8OHdG after an ultrapure water solution of dG is left to stand under the same conditions as above for a predetermined time is measured (this value is defined as B). If A is greater than B, the test substance is evaluated to have oxidation induction ability and conversely if A is smaller than B, the test substance is evaluated to have antioxidant ability. In either case, it is judged that the greater the difference is, the greater degree of oxidation induction ability or antioxidant capability the test substance has.
Then, 20 μl of 200 μg/ml dG (dissolved in ultrapure water) was added to each well and one of the plates was left to stand as it was at room temperature for 90 minutes and the other plate was irradiated with UV light (254 nm, 860 μW/cm^2) for 90 minutes in a UV light irradiation box. […] Subsequently, nucleosides in the both were quantified by use of the UV light absorption analyzer connected to the HPLC and the electrochemical detector.
Solutions of predetermined concentrations of vitamin C (VC), vitamin E (VE), catechin (Cate) and tannic acid (Tan) were prepared and 180 μl portions were injected into each well of two 99-well plastic plates. Then, 20 μl of 200 μg/ml dG (dissolved in ultrapure water) was added to each well and one of the plates was left to stand as it was at room temperature for 90 minutes and the other plate was irradiated with UV light (254 nm, 860 μW/cm^2) for 90 minutes in a UV light irradiation box.
Then, 20 μl of 200 μg/ml dG (dissolved in ultrapure water) was added to each well and one of the plates was left to stand as it was at room temperature for 90 minutes and another plate was left to stand similarly at room temperature for 24 hours. The remaining three plates were irradiated with UV light (254 nm, 860 μW/cm^2) for 60 minutes, 90 minutes and 120 minutes, respectively, in a UV light irradiation box.
Solutions of predetermined concentrations of glucose (Glu), raffinose (Raffi) and sucrose (Suc) were prepared and 180 μl portions thereof were injected into each well of four 99-well plastic plates. Then, 20 μl of 200 μg/ml dG (dissolved in ultrapure water) was added to each well and one of the plates was left to stand as it was at room temperature for 90 minutes. The remaining three plates were irradiated with UV light (254 nm, 860 μW/cm^2) for 60 minutes, 90 minutes and 120 minutes, respectively, in a UV light irradiation box.
Then, 20 μl of 200 μg/ml dG (dissolved in ultrapure water) was added to each well and one of the plates was left to stand as it was at room temperature for 90 minutes and the other plate was irradiated with UV light (254 nm, 860 μW/cm^2) for 90 minutes in a UV light irradiation box.
Solutions of various concentrations of uric acid (dissolving fluid: distilled water+0.025% FBS) were prepared and 180 μl portions thereof were injected into each well of two 99-well plastic plates. Then, 20 μl of 200 μg/ml dG (dissolved in ultrapure water) was added to each well and one of the plates was left to stand as it was at room temperature for 90 minutes and the other plate was irradiated with UV light (254 nm, 860 μW/cm^2) for 90 minutes in a UV light irradiation box.

Turning to `N=C(N)NCCC[C@H](N)C(=O)O` [Arg, 1-arginine], the “evaluation in words: oxidation induction or antioxidant ability toward dG” value (“evaluation in words” for short) is on record as “exhibited antioxidant ability”. Also, the “8OHdG concentration, 90 Minutes' standing” value (1 μg/ml, Table 5) was determined as 0.186 ng/mL. Further, under setting [1], the “8OHdG concentration, 90 Minutes' UV irradiation” value is 0.323 ng/mL. Moreover, under “10 μg/ml, Table 5”, the “8OHdG concentration, 90 Minutes' standing” value is 0.153 ng/mL. Also, the “8OHdG concentration, 90 Minutes' UV irradiation” value under setting [2] was 0.253 ng/mL. The “8OHdG concentration, 90 Minutes' standing” value (100 μg/ml, Table 5) amounted to 0.150 ng/mL. Besides, the “8OHdG concentration, 90 Minutes' UV irradiation” value under setting [3] was found to be 0.305 ng/mL. For the same compound, under “1 mg/ml, Table 5”, the “8OHdG concentration, 90 Minutes' standing” value was determined as 0.173 ng/mL. In addition, under setting [4], the “8OHdG concentration, 90 Minutes' UV irradiation” value was determined as 0.299 ng/mL.

Take `NC(=O)NCCC[C@H](N)C(=O)O` [Cit, 1-citrulline]: the “evaluation in words” value was “exhibited antioxidant ability”. Moreover, the “8OHdG concentration, 90 Minutes' standing” value (1 μg/ml, Table 5) was 0.184 ng/mL. Further, the “8OHdG concentration, 90 Minutes' UV irradiation” value under setting [1] was found to be 0.332 ng/mL. In addition, the “8OHdG concentration, 90 Minutes' standing” value (10 μg/ml, Table 5) turned out to be 0.179 ng/mL. Further, the “8OHdG concentration, 90 Minutes' UV irradiation” value under setting [2] came out at 0.305 ng/mL. In addition, the “8OHdG concentration, 90 Minutes' standing” value (100 μg/ml, Table 5) came out at 0.120 ng/mL. In addition, the “8OHdG concentration, 90 Minutes' UV irradiation” value under setting [3] worked out at 0.225 ng/mL. For the same compound, the “8OHdG concentration, 90 Minutes' standing” value (1 mg/ml, Table 5) was 0.156 ng/mL. Further, under setting [4], the “8OHdG concentration, 90 Minutes' UV irradiation” value is 0.125 ng/mL.

For the compound `Oc1ccc(/C=C/c2cc(O)cc(O)c2)cc1` [RVT, Resveratol], the “8OHdG concentration, 90 Minutes' UV irradiation” value by setting is: (0.0005 ppm, Table 1, ultrapure water 0.529) 1.026 ng/mL; (0.005 ppm, Table 1, ultrapure water 0.529) 0.690 ng/mL; (0.05 ppm, Table 1, ultrapure water 0.529) 0.571 ng/mL; (0.5 ppm, Table 1, ultrapure water 0.529) 1.378 ng/mL; (5 ppm, Table 1, ultrapure water 0.529) 5.582 ng/mL. Also, where the note is “Example 1, 90 minutes UV”, the “concentration at which oxidation injury activity due to UV light is elevated (harmfulness increased)” value is ≥ 0.5 ppm.

For `NCCCNCCCCNCCCN` [Spe, spermine], the “evaluation in words” value is “exhibited antioxidant ability”. Besides, the “8OHdG concentration, 90 Minutes' standing” value (1 μg/ml, Table 5) turned out to be 0.140 ng/mL. For the same compound, the “8OHdG concentration, 90 Minutes' UV irradiation” value under setting [1] was determined as 0.297 ng/mL. Under “10 μg/ml, Table 5”, the “8OHdG concentration, 90 Minutes' standing” value was found to be 0.150 ng/mL. Further, the “8OHdG concentration, 90 Minutes' UV irradiation” value under setting [2] was determined as 0.328 ng/mL. Moreover, the “8OHdG concentration, 90 Minutes' standing” value (100 μg/ml, Table 5) is 0.154 ng/mL. Besides, the “8OHdG concentration, 90 Minutes' UV irradiation” value under setting [3] came out at 0.351 ng/mL. Under “1 mg/ml, Table 5”, the “8OHdG concentration, 90 Minutes' standing” value is 0.179 ng/mL. Moreover, the “8OHdG concentration, 90 Minutes' UV irradiation” value under setting [4] came to 0.112 ng/mL.
